Literature values in US7378261B2, “Method for preparing para-hydroxystyrene by biocatalytic decarboxylation of para-hydroxycinnamic acid in a biphasic reaction medium” (E.I. du Pont de Nemours and Company, priority 2003, dated 2008).

Details: logarithm of solvent's partition coefficient in standard octanol:water mixture

Row | Compound | log P
1 | CCCCCCCC(C)O (centres unmarked) [2-nonanol] | 3.22
2 | CCCCCCCCCC(C)=O [2-undecanone] | 4.21
3 | CCCCCCC(O)CCC (centres unmarked) [4-decanol] | 3.71
4 | CCCCCCC(=O)CCC [4-decanone] | 3.2
5 | CCCCCCCCC(C)O (centres unmarked) [2-decanol] | 3.71
6 | CCCCCCCC(=O)CC [3-decanone] | 3.2
7 | CCCCCC(C)O (centres unmarked) [2-heptanol] | 2.24
8 | CCCCCC [hexane] | 3.9
